Values quoted from earlier work as cited in patent US6420311B1, “Polyether diamine—based surfactant adjuvants and compositions thereof” (Huntsman Petrochemical Corporation, priority 1999, dated 2002).

Settings: free acid form

## O=C(O)CNCP(=O)(O)O [glyphosate, N-phosphonomethylglycine]
  water solubility: low
